The results in this text go back to patent US9334473B2, “Three dimensional cell culture compositions and methods of use” (priority 2012, dated 2016).

For the test, the system named is human neutrophils. Briefly: Chemotaxis of neutrophils suspended inside G041 substrate in a gradient. The format is cell-based. Conditions: 45-minute video. The text has this:
For materials in the Examples 2-4, substrates were punched or cut into shapes, sterilized and used to setup gradients of one or more ingredients. In some tests, gradients were further applied to cells in culture. In other tests, suspension of uncultured cells was suspended inside the substrate to which a gradient was applied.
As shown in Example 9 (Brain Culture #5) cells survived without free (substrate-unbound) medium, if overlapped by another substrate with the embedded medium. Accordingly, molecule diffusion studies, and this included gradients formed in one or more substrates, were maintained for longer periods of time without significant gradient “dilution” (by otherwise present surrounding pool of medium) when applied to cells in culture (or to uncultured cells suspended inside the substrate) by way of a substrate overlap method. In short term studies in a humidified incubator, neutrophils were exposed to a gradient inside the substrate, and the substrate was not overlapped by another substrate, yet a significant fraction of cells taxed in a suitable gradient.

As for “Interleukin 8: cytokine applied as a gradient to neutrophils”, the “Chemotaxis in applied gradient” value was “Chemotaxis of human neutrophils”.
